# In patent US9446051B2, “Neuroprotection and myelin repair using nestorone®” (The Population Council, Inc., priority 2009, dated 2016):
# Assays:
# [1] = tested on: neural progenitor cell (NPC); test: Neural progenitor cell proliferation, BrdU chemiluminescence ELISA; type: cell-based, rat; conditions: for proliferation of progenitor cells compared with progesterone: FIG. 3 and FIG. 4; for NPC proliferation (BrdU incorporation) compared with progesterone: at 24 hours, FIGS. 6A-D
# Method: In vitro studies were carried out to determine neural progenitor cell (NPC) regeneration in rats. Cell proliferation was determined by S phase incorporation of BrdU. After 4 to 6 hours starvation (medium without supplements), rNPCs were loaded with 10 μM BrdU in the presence or absence of bFGF and varying concentrations of P4 or test progestins in unsupplemented maintenance medium for 1d. The rNPCs were then processed as described previously (1, 14). After subtracting the value of the blank (without BrdU loading), data were analyzed using a one-way ANOVA, followed by a Neuman-Keuls post hoc test.
# [2] = tested on: primary hippocampal neurons; test: Neuroprotection of primary hippocampal neurons against glutamate, LDH release; type: cell-based; conditions: for neuroprotective efficacy against 200 μM glutamate (LDH release) compared with progesterone: dose-response, FIGS. 7A-F
# Method: The effect of NES and other progestins on CNS plasticity and the neuroprotective efficacy against glutamate toxicity has also been evaluated. LDH was measured, as a well-accepted assay, to determine such effect after exposure of the cells to glutamate, and the neuronal viability was assessed under the action of various progestins.
# Comparisons of neuroprotection against neurodegenerative insults were carried out. Efficacy was determined in connection with the protection of primary hippocampal neurons against degeneration induced by excitoxic glutamate. Hippocampal neuronal cultures grown on […] culture plates for 7d in vitro were pretreated with vehicle alone or test compounds, followed by exposure to 200 μM glutamate as previously described (13). After glutamate exposure, cultures were washed with HEPES-buffered saline solution and replaced with fresh NBM containing the test compounds or combinations. Cultures were returned to the incubator and incubated for 24 hours prior to analysis of neuronal viability using colorimetric LDH release in the media. Dose-response analysis was conducted for each of the progestins tested, and the results are shown in FIGS. 7A-F. Neuroprotective efficiency was calculated as follows: NE=(Vsample−Vglutamate)/(Vsubcontrol−Vglutamate).
# [3] = tested on: primary hippocampal neuron cultures; conditions: cited from earlier work; for protection against glutamate toxicity: alone or in combination, 48 hours before glutamate insult
# [4] = tested on: androgenic, estrogenic and glucocorticoid responses; conditions: cited from earlier work
# [5] = tested on: PR^lacz mice with MCAO; test: Transient middle cerebral artery occlusion (MCAO), steroid treatment after reperfusion; type: in vivo, mouse
# Method: In experiments conducted using progesterone receptor (PR) deficient mice (PR^−/−) compared with PR^+/− and PR^+/+ mice and both progesterone and Nestorone® were administered after ischemia and reperfusion.
# In order to test the effect of steroid treatments after reperfusion, adult male PR^lacz mice were anesthetized and the middle cerebral artery (MCA) was occluded for one hour with an intraluminal filament. After ligature of the left common carotid artery, a nylon monofilament coated with thermo-melting glue was introduced through an arteriotomy performed on the external carotid artery and advanced into the internal carotid artery. Occlusion of the MCA was controlled by monitoring the cerebral blood flow within the MCA territory by laser Doppler flowmetry. The filament was withdrawn one hour after occlusion to allow reperfusion, and the common carotid artery ligature was also removed. The mice were randomly and blindly assigned to either progesterone, allopregnanolone or Nestorone®, or vehicle-treated (sesame oil; sigma). All of the steroids were initially dissolved in a small volume of ethanol and further diluted in sesame oil to obtain the desired final steroid concentrations. Injections were given interperitoneally (IP) at 1, 6, and 24 hours after MCA occlusion (MCAO) according to established neuroprotective protocols. Treated mice were killed at 48 hours after MCAO.
# Cerebral infarct volumes and areas were determined after triphenyltetrazolium chloride (TTC) staining of brain sections. The details of this procedure are set forth in “Progesterone Receptors: A Key For Neuroprotection In Experimental Stroke,” Endocrinology, August 2012, 153(8), pp. 1-11, which is incorporated herein by reference thereto in its entirety. […] In FIGS. 11, 12 and 13, after the administration of progesterone and Nestorone®, in neuronal density the infarct (FIG. 11) and the penumbra (FIG. 12) can clearly be shown. In FIG. 13 the decrease in […] in the penumbra after administration of progesterone and Nestorone® is also clearly shown.
# [6] = tested on: Bax/Bcl-2; test: In vivo apoptotic activity, Bax/Bcl-2 ratio by Western blot
# Source text: The effects of various progestins on apoptosis was studied using Western blot analysis to determine the expression level of Bax, an apoptosis mediator by […] to the mitochondria to release apoptotic factors such as cytochrome c and Bcl-2. The ratio of Bax to Bcl-2 was used as an indicator of in vivo apoptotic activity.
# [7] = tested on: organotypic neonatal rat or mouse cerebellar slice culture; test: Myelination in organotypic cerebellar slice culture, measured by myelin basic protein (MBP) immunoreactivity; type: cell-based
# Source text: In experiments conducted in organotypic neonatal rat or mouse cerebellar slice culture, progesterone accelerated axon myelination (13,14).
# [8] = tested on: hippocampus of Sprague-Dawley ovariectomized female rats; test: In vivo NPC proliferation and cell viability in ovariectomized rats (Western blot, FACS of BrdU+ cells); design: species or system rat; conditions: for PCNA expression at the protein level: FIG. 8A
# Method: The generalized ability of the above in vitro findings to the in vivo condition were investigated. Analyses of NPC proliferation in rats and cell viability were conducted in three-month-old Sprague-Dawley ovariectomized female rats with various of the progestins. […] In order to assess the total number of BrdU+ cells, the contralateral hippocampal hemisphere used for protein analysis was fixed and processed by FACS analysis. The total number of BrdU+ cells per each hippocampus was determined and normalized to that of vehicle control. […] In order to measure cell viability in terms of promotion of mitochondrial function and reduction in oxidative damage expression of the alpha subunit of ATP synthase-Complex V (CVα) of the mitochondrial oxidative phosphorylation pathway was assessed by Western blot analysis.
# [9] = tested on: hippocampi of ovariectomized female Sprague Dawley rats; type: in vivo; conditions: stated 'as noted above'
# Method: The impact of the combination of 17β-estradiol (E2) and various progestins on neurogenesis and cell viability […] was also carried out. Young adult ovariectomized female Sprague Dawley rates were thus divided into six groups and received injection of either E2 alone or E2 combined with one of the progestins. Hippocampi were isolated 24 hours later for Western blot analysis and flow cytometry to determine the impact of treatment on cell viability and neurogenesis respectively. The expression level of PCNA was assessed to determine the impact of the treatment compounds on entry into the cell cycle required for neurogenesis.
# [10] = indicator of in vivo apoptotic activity
smiles,measurement,setting,value
C#C[C@]1(OC(C)=O)CC[C@H]2[C@@H]3CCC4=CC(=NO)CC[C@@H]4[C@H]3CC[C@@]21CC (mixture of isomers) [norgestimate],proliferation of progenitor cells compared with progesterone,[1],more proliferative than progesterone
same,NPC proliferation (BrdU incorporation) compared with progesterone,[1],more potent in cell proliferation than progesterone at all concentrations
same,neuroprotective efficacy against 200 μM glutamate (LDH release) compared with progesterone,[2],less potent than progesterone
"C[C@]12CC[C@@H]3c4ccc(O)cc4CC[C@H]3[C@@H]1CC[C@@H]2O [estradiol, 17β-estradiol]",protection against glutamate toxicity,[3],protected against glutamate toxicity
C#C[C@]1(O)CC[C@H]2[C@@H]3CCC4=CC(=O)CC[C@@H]4[C@H]3CC[C@@]21C [norethindrone],androgenic response,[4],exert androgenic and estrogenic responses
same,estrogenic response,[4],exert androgenic and estrogenic responses
same,neuroprotective efficacy against 200 μM glutamate (LDH release) compared with progesterone,[2],less potent than progesterone
CC(=O)[C@H]1CC[C@H]2[C@@H]3CCC4=CC(=O)CC[C@]4(C)[C@H]3CC[C@]12C [progesterone],efficient neuroprotective dose,[5]; after stroke,8 mg/kg
same,microglial density in the penumbra (neuroinflammatory responses),[5]; treatment after stroke,reduced microglial density
same,neuronal density in the infarct and in the penumbra,[5]; treatment after stroke,significantly increases the neuronal density
same,ratio of Bax/Bcl-2 expression,[6]; [10],no effect
same,concentration of equal promyelinating activity,[7]; NES at 20 μm as active as PROG at 50 μm (FIG. 1),50 μm
same,myelination in cerebellar slices from PR knockout mice,[7]; PR knockout mice,did not increase myelination
same,myelination measured by myelin basic protein (MBP) immunoreactivity,[7]; cerebellar slice culture,promote dose-dependent myelination
same,protection against glutamate toxicity,[3],protected against glutamate toxicity
same,CDC2 protein expression,[8]; Western blot,significantly increased
same,proliferation of progenitor cells compared with progesterone,[1],increases the proliferation
same,NPC proliferation (BrdU incorporation) compared with progesterone,[1],comparably efficacious at their EC100 concentrations
same,neuroprotective efficacy against glutamate toxicity (LDH),"[2]; FIG. 5, NES and PROG at 10−7M",exerted the higher efficacy
"CC(=O)O[C@]1(C(C)=O)CC[C@H]2[C@@H]3C[C@H](C)C4=CC(=O)CC[C@]4(C)[C@H]3CC[C@@]21C [MPA, medroxyprogesterone acetate]",ratio of Bax/Bcl-2 expression,[6]; in vivo,significantly increased
same,cell proliferation,[9],increased cell proliferation
same,androgenic response,[4],induce androgenic responses
same,glucocorticoid response,[4],induces both androgenic and glucocorticoid responses
same,protection against glutamate toxicity,[3],failed to protect against glutamate toxicity
same,effect on estrogen-induced neuroprotection when coadministered,[3]; coadministered with 17β-E2,attenuated the estrogen-induced neuroprotection
same,total number of BrdU+ cells per hippocampus,"[8]; FACS, normalized to vehicle control, FIG. 8B",no significant effect on cell proliferation
same,PCNA expression at the protein level,[8]; Western blot,no significant effect
same,expression of alpha subunit of ATP synthase-Complex V (CVα),"[8]; Western blot, FIG. 8C",no significant effect
same,proliferation of progenitor cells compared with progesterone,[1],antagonistic
same,NPC proliferation (BrdU incorporation) compared with progesterone,[1],significantly inhibited proliferation at multiple concentrations
same,neuroprotective efficacy against 200 μM glutamate (LDH release) compared with progesterone,[2],less potent than progesterone
CC(=O)[C@H]1CC[C@H]2[C@@H]3CCC4=CC(=O)CC[C@@H]4[C@H]3CC[C@]12C [19-norprogesterone],protection against glutamate toxicity,[3],protected against glutamate toxicity
C#C[C@]1(O)CC[C@H]2[C@@H]3CCC4=CC(=O)CC[C@@H]4[C@H]3CC[C@@]21CC [levonorgestrel],ratio of Bax/Bcl-2 expression,[6]; [10],significantly increased
same,PCNA expression at the protein level,[8]; Western blot,no significant effect
C#C[C@]1(O)CC[C@H]2[C@@H]3CCC4=C(CCC(=O)C4)[C@H]3CC[C@@]21C [norethynodrel],androgenic response,[4],exert androgenic and estrogenic responses
same,estrogenic response,[4],exert androgenic and estrogenic responses
same,proliferation of progenitor cells compared with progesterone,[1],more proliferative than progesterone
same,"NPC proliferation (BrdU incorporation) compared with progesterone, high nanomolar ranges",[1]; high nanomolar ranges,significantly more efficacious than progesterone
same,"NPC proliferation (BrdU incorporation) compared with progesterone, low nanomolar range",[1]; low nanomolar range,comparable effects to progesterone
same,neuroprotective efficacy against 200 μM glutamate (LDH release) compared with progesterone,[2],more potent than progesterone at minimal effective concentrations
C#C[C@]1(OC(C)=O)CC[C@H]2[C@@H]3CCC4=CC(=O)CC[C@@H]4[C@H]3CC[C@@]21C [norethindrone acetate],proliferation of progenitor cells compared with progesterone,[1],antagonistic
same,NPC proliferation (BrdU incorporation) compared with progesterone,[1],minimal or no effect on proliferation
